What was measured:
PDE5A1 = target: T1, PDE5A1 (Homo sapiens, UniProt O76074); assay: Inhibition of type 5 phosphodiesterase (PDE5) activity, modified SPA test with human platelet lysate; type: biochemical; details: 0.5 μM cGMP, read-out: PDE5A1 inhibitory values [measured as −log IC50 (mol/l)] (converted)
T1 construct: from tissue; host or cells: human platelets from fresh donor blood (10,000 x g supernatant of sonicated lysate)
Outline: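 Scintillation proximity assay with [3H]cGMP tracer at 0.5 μM total cGMP, stopped after 15 min with beads containing IBMX. PDE3 and PDE2 activities suppressed with motapizone (1 μM) and a PDE2 inhibitor (10 nM). Human platelet supernatant served as the enzyme, with compound preincubated 5 min at 37° C; IC50 values from concentration-effect curves.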

PDE4B1 = target: T2, PDE4B1 (Homo sapiens, UniProt Q07343); assay: Inhibition of type 4 phosphodiesterase (PDE4) activity, modified SPA test with recombinant PDE4B1 expressed in SF21 insect cells; type: biochemical; details: recombinant PDE4B1, 0.5 μM cAMP, read-out: PDE4B1 inhibitory values [measured as −log IC50 (mol/l)] (converted)
T2 construct: made in house; host or cells: SF21 insect cells (baculovirus; pCRBac vector), 1000 x g supernatant of homogenate
Outline: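 Modified [3H]cAMP SPA using 1000×g supernatant of SF21 cells expressing recombinant human PDE4B1, in 20 mM Tris pH 7.4, 0.1 mg/ml BSA, 5 mM Mg2+, 0.5 μM cAMP. After 5 min preincubation at 37 °C, 15 min reaction, stopped with SPA beads plus IBMX; IC50 by non-linear regression.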

T2 sequence (Q07343 whole entry): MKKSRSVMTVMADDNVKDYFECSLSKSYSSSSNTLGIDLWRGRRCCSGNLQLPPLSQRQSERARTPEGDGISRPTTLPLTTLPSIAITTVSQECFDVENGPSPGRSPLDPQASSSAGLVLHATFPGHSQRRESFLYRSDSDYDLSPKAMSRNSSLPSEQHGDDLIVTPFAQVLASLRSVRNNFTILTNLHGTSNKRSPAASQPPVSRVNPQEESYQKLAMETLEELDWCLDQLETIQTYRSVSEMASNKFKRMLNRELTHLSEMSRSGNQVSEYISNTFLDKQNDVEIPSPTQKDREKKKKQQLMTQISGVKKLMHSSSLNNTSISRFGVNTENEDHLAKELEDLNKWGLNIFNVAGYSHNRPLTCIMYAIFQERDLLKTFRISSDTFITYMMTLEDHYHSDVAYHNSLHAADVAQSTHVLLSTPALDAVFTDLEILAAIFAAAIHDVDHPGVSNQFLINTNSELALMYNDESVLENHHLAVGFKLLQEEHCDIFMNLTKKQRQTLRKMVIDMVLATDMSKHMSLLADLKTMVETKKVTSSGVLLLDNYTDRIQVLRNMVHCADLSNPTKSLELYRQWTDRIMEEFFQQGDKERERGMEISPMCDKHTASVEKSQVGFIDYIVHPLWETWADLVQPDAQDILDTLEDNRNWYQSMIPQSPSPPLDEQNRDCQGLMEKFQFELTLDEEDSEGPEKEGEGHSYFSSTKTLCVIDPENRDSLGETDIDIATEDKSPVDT

SMILES	IC50 (PDE5A1) [nM]	IC50 (PDE4B1) [nM]
COCC(=O)N1CCC(NC(=O)c2c(C)[nH]c3c(-c4cc(C)ccc4OCC4CC4)ncnc23)CC1 [Example E83, 4-[2-(cyclopropylmethoxy)-5-methylphenyl]-N-[1-(methoxyacetyl)piperidin-4-yl]-6-methyl-5H-pyrrolo[3,2-d]pyrimidine-7-carboxamide]	< 1	< 100
CC(=O)N1CCC(NC(=O)c2c(C)[nH]c3c(-c4cc(C)ccc4OCC4CC4)nc(C)nc23)CC1 [Example E169, N-(1-Acetylpiperidin-4-yl)-4-[2-(cyclopropylmethoxy)-5-methylphenyl]-2,6-dimethyl-5H-pyrrolo[3,2-d]pyrimidine-7-carboxamide]	< 1	100 to 1000
CC(=O)N1CCC(NC(=O)c2c(C)[nH]c3c(-c4cc(C)ccc4OCC4CC4)ncnc23)CC1 [Example E81, N-(1-Acetylpiperidin-4-yl)-4-[2-(cyclopropylmethoxy)-5-methylphenyl]-6-methyl-5H-pyrrolo[3,2-d]pyrimidine-7-carboxamide]	< 1	< 100
CCC(=O)N[C@H]1CC[C@H](NC(=O)c2c(C)[nH]c3c(-c4cc(C)ccc4OCC4CC4)ncnc23)CC1 [Example E85, 4-[2-(Cyclopropylmethoxy)-5-methylphenyl]-6-methyl-N-[trans-4-(propanoylamino)cyclohexyl]-5H-pyrrolo[3,2-d]pyrimidine-7-carboxamide]	< 1	< 100
CC(=O)N[C@H]1CC[C@H](NC(=O)c2c(C)[nH]c3c(-c4cc(C(C)C)ccc4OCC4CC4)ncnc23)CC1 [Example E159, N-[trans-4-(Acetylamino)cyclohexyl]-4-[2-(cyclopropylmethoxy)-5-(propan-2-yl)phenyl]-6-methyl-5H-pyrrolo[3,2-d]pyrimidine-7-carboxamide]	< 1	100 to 1000
COCC(=O)N1CCC(NC(=O)c2c(C)[nH]c3c(-c4cc(F)ccc4OCC4CC4)ncnc23)CC1 [Example E39, 4-(2-Cyclopropylmethoxy-5-fluoro-phenyl)-6-methyl-5H-pyrrolo[3,2-d]pyrimidine-7-carboxylic acid [1-(2-methoxy-acetyl)-piperidin-4-yl]-amide]	1 to 10	100 to 1000
COc1ccc(OCC2CC2)c(-c2ncnc3c(C(=O)N[C@H]4CC[C@@H](NC(C)=O)CC4)c(C)[nH]c23)c1 [Example E72, N-(cis-4-acetamidocyclohexyl)-4-[2-(cyclopropylmethoxy)-5-methoxyphenyl]-6-methyl-5H-pyrrolo[3,2-d]pyrimidine-7-carboxamide]	< 1	100 to 1000
CCc1ccc(OCC2CC2)c(-c2ncnc3c(C(=O)N[C@H]4CC[C@@H](NC(C)=O)CC4)c(C)[nH]c23)c1 [Example E151, N-[cis-4-(Acetylamino)cyclohexyl]-4-[2-(cyclopropylmethoxy)-5-ethylphenyl]-6-methyl-5H-pyrrolo[3,2-d]pyrimidine-7-carboxamide]	< 1	100 to 1000
CCc1ccc(OCC2CC2)c(-c2ncnc3c(C(=O)N[C@H]4CC[C@H](NC(=O)COC)CC4)c(C)[nH]c23)c1 [Example E150, 4-[2-(Cyclopropylmethoxy)-5-ethylphenyl]-N-{trans-4-[(methoxyacetyl)amino]cyclohexyl}-6-methyl-5H-pyrrolo[3,2-d]pyrimidine-7-carboxamide]	< 1	< 100
COCC(=O)N[C@H]1CC[C@H](NC(=O)c2c(C)[nH]c3c(-c4cc(C)ccc4OCC4CC4)ncnc23)CC1 [Example E86, 4-[2-(Cyclopropylmethoxy)-5-methylphenyl]-N-{trans-4-[(methoxyacetyl)amino]cyclohexyl}-6-methyl-5H-pyrrolo[3,2-d]pyrimidine-7-carboxamide]	< 1	< 100

More lines, now with the values ahead:

IC50 (PDE5A1) [nM]	IC50 (PDE4B1) [nM]	SMILES
< 1	< 100	COCC(=O)N[C@H]1CC[C@H](NC(=O)c2c(C)[nH]c3c(-c4cc(C(F)F)ccc4OCC4CC4)ncnc23)C[C@@H]1C (relative stereo) [Example P191, 4-[2-(Cyclopropylmethoxy)-5-(difluoromethyl)phenyl]-N-{(1S*,3S*,4S*)-4-[(methoxyacetyl)amino]-3-methylcyclohexyl}-6-methyl-5H-pyrrolo[3,2-d]pyrimidine-7-carboxamide]
< 1	< 100	Cc1[nH]c2c(-c3cc(C(F)(F)F)ccc3OCC3CC3)ncnc2c1C(=O)N[C@H]1CC[C@@H](NC(=O)CO)CC1 [Example F61, 4-[2-(Cyclopropylmethoxy)-5-(trifluoromethyl)phenyl]-N-{cis-4-[(hydroxyacetyl)amino]cyclohexyl}-6-methyl-5H-pyrrolo[3,2-d]pyrimidine-7-carboxamide]
< 1	< 100	Cc1ccc(OCC2CC2)c(-c2ncnc3c(C(=O)NC4CCN(C(=O)[C@H](C)O)CC4)c(C)[nH]c23)c1 [Example F52, 4-[2-(Cyclopropylmethoxy)-5-methylphenyl]-N-{1-[(2S)-2-hydroxypropanoyl]piperidin-4-yl}-6-methyl-5H-pyrrolo[3,2-d]pyrimidine-7-carboxamide]
< 1	100 to 1000	Cc1[nH]c2c(-c3cc(C(C)C)ccc3OCC3CC3)ncnc2c1C(=O)N[C@H]1CC[C@H](NC(=O)[C@H](C)O)CC1 [Example F100, 4-[2-(Cyclopropylmethoxy)-5-(propan-2-yl)phenyl]-N-(trans-4-{[(2S)-2-hydroxypropanoyl]amino}cyclohexyl)-6-methyl-5H-pyrrolo[3,2-d]pyrimidine-7-carboxamide]
< 1	< 100	COCC(=O)N[C@@H]1CC[C@@H](NC(=O)c2c(C)[nH]c3c(-c4cc(C(F)F)ccc4OCC4CC4)ncnc23)[C@H](F)C1 (relative stereo) [Example P161, 4-[2-(Cyclopropylmethoxy)-5-(difluoromethyl)phenyl]-N-{(1R*,2R*,4R*)-2-fluoro-4-[(methoxyacetyl)amino]cyclohexyl}-6-methyl-5H-pyrrolo[3,2-d]pyrimidine-7-carboxamide]
< 1	< 100	CC(=O)N[C@H]1CC[C@H](NC(=O)c2c(C)[nH]c3c(-c4cc(C(F)F)ccc4OCC4CC4)ncnc23)CC1 [Example P6, N-[trans-4-(Acetylamino)cyclohexyl]-4-[2-(cyclopropylmethoxy)-5-(difluoromethyl)phenyl]-6-methyl-5H-pyrrolo[3,2-d]pyrimidine-7-carboxamide]
< 1	< 100	CCC(=O)N[C@H]1CC[C@H](NC(=O)c2c(C)[nH]c3c(-c4cc(C(F)F)ccc4OCC4CC4)ncnc23)[C@H](F)C1 (relative stereo) [Example P170, 4-[2-(Cyclopropylmethoxy)-5-(difluoromethyl)phenyl]-N-[(1S*,2R*,4S*)-2-fluoro-4-(propanoylamino)cyclohexyl]-6-methyl-5H-pyrrolo[3,2-d]pyrimidine-7-carboxamide]
< 1	< 100	CC(=O)N[C@H]1CC[C@H](NC(=O)c2c(C)[nH]c3c(-c4cc(C(F)F)ccc4OCC4CC4)ncnc23)[C@H](F)C1 (relative stereo) [Example P169, N-[(1S*,2R*,4S*)-4-(Acetylamino)-2-fluorocyclohexyl]-4-[2-(cyclopropylmethoxy)-5-(difluoromethyl)phenyl]-6-methyl-5H-pyrrolo[3,2-d]pyrimidine-7-carboxamide]

Source: patent US9376442B2, “Methylpyrrolopyrimidinecarboxamides” (Takeda GmbH, priority 2009, dated 2016)
